We go through two compounds from ChEMBL document CHEMBL6103591, “Discovery of naphthoquinone-furo-piperidone derivatives as dual targeting agents of STAT3 and NQO1 for the treatment of breast cancer” (Eur J Med Chem, 2025).

The test system of series [1] is MDA-MB-231. Put plainly: Antiproliferative activity against human MDA-MB-231 cells assessed as reduction in cell viability incubated for 48 hrs by MTT assay. In kind it is functional, cell-based. The settings on record: MDA-MB-231, 48 h. On the technique in general: Tetrazolium dyes change colour on reduction, which living cells bring about.
The subject of series [2] is MDA-MB-468. Put plainly: Antiproliferative activity against human MDA-MB-468 cells assessed as reduction in cell viability incubated for 48 hrs by MTT assay. The class given is functional, cell-based. As to conditions: MDA-MB-468, 48 h.
The target in series [3] is Signal transducer and activator of transcription 3 (Homo sapiens, UniProt P40763). Put plainly: Inhibition of STAT3 (unknown origin) activation transfected in HEK293 preincubated for 30 mins followed by IL-6 addition and measured after 24 hrs by luciferase reporter gene assay. In kind it is cell-based.
The nature of series [4]: Cytotoxicity against human MCF-10A cells. In kind it is toxicity, cell-based.
Series [5] in a line: Selectivity ratio of IC50 for cytotoxicity against human MCF-10A cells to IC50 for antiproliferative activity against human MDA-MB-231 cells. The class given is toxicity, cell-based. As to conditions: MCF-10A cells versus MDA-MB-231 cells, read-out: Ratio IC50.
Series [6] relates to MDA-MB-231. Put plainly: Induction of apoptosis in human MDA-MB-231 cells assessed as early apoptotic cells at 1.5 uM measured after 24 hrs by Annexin V/propidium iodide (PI) double staining based flow cytometric analysis (reference value: 1.98 %). In kind it is functional. Background: In flow cytometry, cells or beads pass a laser one at a time.
Series [7] concerns MDA-MB-231. Put plainly: Induction of apoptosis in human MDA-MB-231 cells assessed as late apoptotic cells at 1.5 uM measured after 24 hrs by Annexin V/propidium iodide (PI) double staining based flow cytometric analysis (reference value: 2.22 %). The class given is functional.
Series [8] deals with MDA-MB-231. The series can be described thus: Induction of apoptosis in human MDA-MB-231 cells assessed as early apoptotic cells at 3 uM measured after 24 hrs by Annexin V/propidium iodide (PI) double staining based flow cytometric analysis (reference value: 1.98 %). In kind it is functional.
For series [9], the system named is MDA-MB-231. The series can be described thus: Induction of apoptosis in human MDA-MB-231 cells assessed as late apoptotic cells at 3 uM measured after 24 hrs by Annexin V/propidium iodide (PI) double staining based flow cytometric analysis (reference value: 2.22 %). The class given is functional.
Series [10] has as its system MDA-MB-468. The series can be described thus: Induction of apoptosis in human MDA-MB-468 cells assessed as early apoptotic cells at 1.5 uM measured after 24 hrs by Annexin V/propidium iodide (PI) double staining based flow cytometric analysis (reference value: 2.94 %). The class given is functional.
Series [11] concerns MDA-MB-468. The series can be described thus: Induction of apoptosis in human MDA-MB-468 cells assessed as late apoptotic cells at 1.5 uM measured after 24 hrs by Annexin V/propidium iodide (PI) double staining based flow cytometric analysis (reference value: 2.24 %). The class given is functional.
For series [12], the system named is MDA-MB-468. The series can be described thus: Induction of apoptosis in human MDA-MB-468 cells assessed as early apoptotic cells at 3 uM measured after 24 hrs by Annexin V/propidium iodide (PI) double staining based flow cytometric analysis (reference value: 2.94 %). In kind it is functional.
Series [13] relates to MDA-MB-468. The series can be described thus: Induction of apoptosis in human MDA-MB-468 cells assessed as late apoptotic cells at 3 uM measured after 24 hrs by Annexin V/propidium iodide (PI) double staining based flow cytometric analysis (reference value: 2.24 %). In kind it is functional.
The subject of series [14] is MDA-MB-231. Put plainly: Induction of apoptosis in human MDA-MB-231 cells assessed as early apoptotic cells at 3 uM measured after 24 hrs by Annexin V/propidium iodide (PI) double staining based flow cytometric analysis (reference value: 1.99 %). In kind it is functional.
In series [15] the test system is MDA-MB-231. The series can be described thus: Induction of apoptosis in human MDA-MB-231 cells assessed as late apoptotic cells at 3 uM measured after 24 hrs by Annexin V/propidium iodide (PI) double staining based flow cytometric analysis (reference value: 1.84 %). The class given is functional.
Series [16] has as its system MDA-MB-231. The series can be described thus: Induction of apoptosis in human MDA-MB-231 cells assessed as early apoptotic cells at 3 uM measured after 24 hrs in presence of Z-VAD-FMK by Annexin V/propidium iodide (PI) double staining based flow cytometric analysis (reference value: 1.99 %). In kind it is functional.
The test system of series [17] is MDA-MB-231. The series can be described thus: Induction of apoptosis in human MDA-MB-231 cells assessed as late apoptotic cells at 3 uM measured after 24 hrs in presence of Z-VAD-FMK by Annexin V/propidium iodide (PI) double staining based flow cytometric analysis (reference value: 1.84 %). In kind it is functional.
The test system of series [18] is MDA-MB-468. Put plainly: Induction of apoptosis in human MDA-MB-468 cells assessed as early apoptotic cells at 3 uM measured after 24 hrs by Annexin V/propidium iodide (PI) double staining based flow cytometric analysis (reference value: 4.97 %). The class given is functional.
For series [19], the system named is MDA-MB-468. Put plainly: Induction of apoptosis in human MDA-MB-468 cells assessed as late apoptotic cells at 3 uM measured after 24 hrs by Annexin V/propidium iodide (PI) double staining based flow cytometric analysis (reference value: 2.12 %). The class given is functional.
In series [20] the test system is MDA-MB-468. Put plainly: Induction of apoptosis in human MDA-MB-468 cells assessed as early apoptotic cells at 3 uM measured after 24 hrs in presence of Z-VAD-FMK by Annexin V/propidium iodide (PI) double staining based flow cytometric analysis (reference value: 4.97 %). The class given is functional.
In series [21] the test system is MDA-MB-468. The series can be described thus: Induction of apoptosis in human MDA-MB-468 cells assessed as late apoptotic cells at 3 uM measured after 24 hrs in presence of Z-VAD-FMK by Annexin V/propidium iodide (PI) double staining based flow cytometric analysis (reference value: 2.12 %). In kind it is functional.
For another series, the system named is MCF7. The series can be described thus: Antiproliferative activity against human MCF7 cells incubated for 48 hrs by MTT assay. The class given is functional, cell-based. The settings on record: MCF7, 48 h.
Series [22] concerns MDA-MB-231. Put plainly: Antitumor activity against human MDA-MB-231 cells xenografted in female BALB/c nude mouse assessed as tumor growth inhibition at 5 mg/kg, ip administered daily and measured every 2 days for 21 days relative to control. In kind it is functional. The settings on record: MDA-MB-231, 504 h, time 21 day, read-out: TGI. In general terms: In xenograft studies the graft and the host belong to different species.

Series [23] relates to MDA-MB-231. The series can be described thus: Antitumor activity against human MDA-MB-231 cells xenografted in female BALB/c nude mouse assessed as tumor growth inhibition at 10 mg/kg, ip administered daily and measured every 2 days for 21 days relative to control. In kind it is functional. The settings on record: MDA-MB-231, 504 h, time 21 day, read-out: TGI.
Series [24] can be described thus: Toxicity in female BALB/c nude mouse xenografted with human MDA-MB-231 cells assessed as body weight loss at 5 to 10 mg/kg, ip administered daily and measured every 2 days for 21 days. The class given is organism-based. The settings on record: in vivo, 504 h, dose 5-10 mg/kg, time 21 day.
A short description of series [25]: Toxicity in female BALB/c nude mouse xenografted with human MDA-MB-231 cells assessed as morphological change in heart at 5 to 10 mg/kg, ip administered daily and measured every 2 days for 21 days by hematoxylin and eosin staining based analysis. In kind it is organism-based. As to conditions: in vivo, 504 h, dose 5-10 mg/kg, time 21 day.
Series [26] in a line: Toxicity in female BALB/c nude mouse xenografted with human MDA-MB-231 cells assessed as morphological change in liver at 5 to 10 mg/kg, ip administered daily and measured every 2 days for 21 days by hematoxylin and eosin staining based analysis. As to conditions: in vivo, 504 h, dose 5-10 mg/kg, time 21 day. The class given is organism-based.
Series [27] is described as follows: Toxicity in female BALB/c nude mouse xenografted with human MDA-MB-231 cells assessed as morphological change in kidney at 5 to 10 mg/kg, ip administered daily and measured every 2 days for 21 days by hematoxylin and eosin staining based analysis. In kind it is organism-based. The settings on record: in vivo, 504 h, dose 5-10 mg/kg, time 21 day.
Series [28] can be described thus: Toxicity in female BALB/c nude mouse xenografted with human MDA-MB-231 cells assessed as morphological change in spleen at 5 to 10 mg/kg, ip administered daily and measured every 2 days for 21 days by hematoxylin and eosin staining based analysis. As to conditions: in vivo, 504 h, dose 5-10 mg/kg, time 21 day. The class given is organism-based.
Series [29] is described as follows: Toxicity in female BALB/c nude mouse xenografted with human MDA-MB-231 cells assessed as morphological change in lung at 5 to 10 mg/kg, ip administered daily and measured every 2 days for 21 days by hematoxylin and eosin staining based analysis. In kind it is organism-based. The settings on record: in vivo, 504 h, dose 5-10 mg/kg, time 21 day.

SMILES strings stand for the structures.

Signal transducer and activator of transcription 3, sequence (P40763 whole entry): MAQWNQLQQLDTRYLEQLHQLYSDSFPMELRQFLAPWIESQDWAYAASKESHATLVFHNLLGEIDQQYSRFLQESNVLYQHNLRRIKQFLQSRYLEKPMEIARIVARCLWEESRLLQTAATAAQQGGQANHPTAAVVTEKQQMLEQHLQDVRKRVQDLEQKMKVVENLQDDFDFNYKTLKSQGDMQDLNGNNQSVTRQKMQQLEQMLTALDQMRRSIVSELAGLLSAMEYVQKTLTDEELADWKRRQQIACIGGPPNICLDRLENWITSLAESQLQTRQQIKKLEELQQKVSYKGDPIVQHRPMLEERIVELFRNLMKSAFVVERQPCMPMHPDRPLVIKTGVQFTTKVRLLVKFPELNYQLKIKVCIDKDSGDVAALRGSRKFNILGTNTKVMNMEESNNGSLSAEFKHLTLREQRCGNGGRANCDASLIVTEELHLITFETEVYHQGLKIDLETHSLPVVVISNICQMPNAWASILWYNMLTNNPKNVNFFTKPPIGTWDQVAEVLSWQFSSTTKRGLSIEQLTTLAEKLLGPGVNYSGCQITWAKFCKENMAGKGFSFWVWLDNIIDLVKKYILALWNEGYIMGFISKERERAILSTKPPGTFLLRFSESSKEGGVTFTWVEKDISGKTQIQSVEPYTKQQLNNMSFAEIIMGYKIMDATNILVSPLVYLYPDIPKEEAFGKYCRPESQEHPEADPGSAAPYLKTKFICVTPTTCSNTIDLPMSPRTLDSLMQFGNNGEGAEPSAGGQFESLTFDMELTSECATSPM

For orientation: IC50 means the midpoint of a concentration-inhibition curve. For the compound `O=C1C(=O)c2c(oc3c2CCN(CCN2CCCCC2)C3=O)-c2ccccc21`, the IC50 is 520 nM in the series on MDA-MB-231 [1]; 1480 nM with MDA-MB-468 [2]; 400 nM in [3]; 3330 nM in series [4]; 1050 nM in the series with MCF7. Also, the selectivity ratio in [5] was roughly 6. For the same compound, the Activity is listed as 2.31% with MDA-MB-231 [6]; 5.26% in the series with MDA-MB-231 [7]; 2.94% in the series on MDA-MB-231 [8]; 25.08% in the series with MDA-MB-231 [9]; 7.36% in the series with MDA-MB-468 [10]; 4.07% with MDA-MB-468 [11]. Moreover, the Activity in the series with MDA-MB-468 [12] was 14.73%; in the series with MDA-MB-468 [13], 37.57%; in the series on MDA-MB-231 [14] it was 8.01%; in the series on MDA-MB-231 [15] it was 27.43%; in the series with MDA-MB-231 [16] it was 4.67%; in the series with MDA-MB-231 [17], 13.99%. Further, the Activity is 17.75% in the series with MDA-MB-468 [18], 52.62% with MDA-MB-468 [19], 9.18% with MDA-MB-468 [20] and 8.47% in the series with MDA-MB-468 [21].
`Cl.O=C1C(=O)c2c(oc3c2CCN(CCN2CCCCC2)C3=O)-c2ccccc21`: the inhibition in vivo at 5 mg/kg in the series with MDA-MB-231 [22] came out at 28.9%. Also, the inhibition in vivo at 10 mg/kg in the series with MDA-MB-231 [23] came out at 56.8%. Besides, the Activity result in series [24], in [25], in series [26], in series [27], in series [28] and in series [29] was “Non-toxic” throughout.
